Measured values taken from the supplement of paper PMC10307832.

Experiments:
Assay in all cases: relative viability (nuclei count vs DMSO), 5 days (fraction); higher = more cells survive
[1] = compound: Cc1nc(Nc2ncc(C(=O)Nc3c(C)cccc3Cl)s2)cc(N2CCN(CCO)CC2)n1 [Dasatinib] + CCNC(=O)c1noc(-c2cc(C(C)C)c(O)cc2O)c1-c1ccc(CN2CCOCC2)cc1 [Luminespib] (partner 0.01 µM)
How it was run: (§1)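 A single step with final 0.05% Triton X-100, 1% formaldehyde and 1 ug/ml Hoechst fixed the cells and stained nuclei 5 days after treatment. Lung cancer cell lines in 1536-well plates had been treated by pin tool the day after seeding with one drug alone or a fixed anchor-drug dose plus five library-drug doses (not always all listed) in √10 steps, and nuclei were counted on 4× images. Relative viability is the ratio of nuclei in treated wells to nuclei in vehicle wells, taken as the median of duplicate plates.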

[2] = compound: Cc1nc(Nc2ncc(C(=O)Nc3c(C)cccc3Cl)s2)cc(N2CCN(CCO)CC2)n1 [Dasatinib] + Cc1cc(Nc2cc(N3CCN(C)CC3)nc(Sc3ccc(NC(=O)C4CC4)cc3)n2)n[nH]1 [Tozasertib] (partner 0.1 µM)
How it was run: as §1

[3] = compound: C1CC1C(=O)NC2=NNC3=C2C=CC(=C3)C4=CC(=CC=C4)C(=O)NC5CC5 [XMD13-2] + C[C@@H](Oc1cc(-c2cnn(C3CCNCC3)c2)cnc1N)c1c(Cl)ccc(F)c1Cl [Crizotinib] (partner 1 µM)
How it was run: as §1

[4] = compound: Cc1ccc(C(=O)Nc2cccc(C(F)(F)F)c2)cc1Nc1cncc(C(N)=O)c1 [ALW-II-49-7] + N=C(N)NC(=N)NCCc1ccccc1 [Phenformin] (partner 250 µM)
How it was run: as §1

Cell Line	relative viability ([1]; first compound 0.005 µM)	relative viability ([1]; first compound 0.05 µM)	relative viability ([1]; first compound 0.1581 µM)	relative viability ([1]; first compound 0.5 µM)	relative viability ([2]; first compound 0.005 µM)	relative viability ([2]; first compound 0.05 µM)	relative viability ([2]; first compound 0.1581 µM)	relative viability ([2]; first compound 0.5 µM)	relative viability ([3]; first compound 0.05 µM)	relative viability ([3]; first compound 0.1581 µM)	relative viability ([3]; first compound 0.5 µM)	relative viability ([3]; first compound 1.581 µM)	relative viability ([3]; first compound 5 µM)	relative viability ([4]; first compound 0.08 µM)	relative viability ([4]; first compound 0.253 µM)	relative viability ([4]; first compound 0.8 µM)	relative viability ([4]; first compound 2.53 µM)	relative viability ([4]; first compound 8 µM)	relative viability ([1]; first compound 0.01581 µM)	relative viability ([2]; first compound 0.01581 µM)
LU99A	0.229	0.247	0.143	0.166	0.233	0.243	0.209	0.23	0.581	0.489	0.558	0.429	0.393	0.845	0.923	0.82	0.988	0.746		
LXF-289	0.745	0.648	0.334	0.138	0.193	0.0932	0.0636	0.0438	0.863	0.831	0.473	0.789	0.811	0.515	0.554	0.556	0.536	0.526	0.564	0.0886
NCI-H23	0.233	0.217	0.19	0.187	0.318	0.347	0.302	0.318	0.759	0.518	0.506	0.411	0.423	0.855	0.759	0.705	0.857	0.898	0.195	0.309
NCI-H322M	0.779	0.38	0.288	0.232	0.465	0.289	0.232	0.176	0.913	0.937	1.09	0.814	1.01	0.684	0.697	0.711	0.777	0.612	0.491	0.356
NCI-H358	0.215	0.253	0.262	0.136	0.0888	0.101	0.084	0.0689	0.77	0.546	0.736	0.423	0.324	0.324	0.297	0.356	0.407	0.312	0.169	0.0863
NCI-H441	0.372	0.225	0.196	0.193	0.594	0.625	0.467	0.375	0.842	0.715	0.875	0.656	0.578	0.979	0.682	0.817	0.928	0.67	0.307	0.539
NCI-H460	0.0311	0.0288	0.02	0.0207	0.299	0.302	0.338	0.177	1.25	0.951	0.99	0.949	0.873	0.425	0.414	0.561	0.559	0.372	0.031	0.425
NCI-H520	0.184	0.221	0.194	0.197	0.356	0.294	0.239	0.179	0.962	0.681	0.682	0.672	0.403	0.57	0.604	0.624	0.681	0.562	0.209	0.284
NCI-H596	0.809	0.776	0.552	0.478	0.766	0.87	0.507	0.393	1.05	0.916	0.98	0.884	1.05	0.804	0.706	0.596	0.622	0.788	0.691	0.671
NCI-H647	0.141	0.137	0.117	0.0952	0.265	0.128	0.0973	0.0474	1.25	0.903	1.12	1.03	0.548	0.312	0.325	0.551	0.539	0.326	0.0794	0.288
NCI-H650	0.771	0.852	0.401	0.213	0.705	0.755	0.619	0.42	0.838	0.836	0.803	0.638	0.74	0.519	0.481	0.396	0.449	0.334	0.777	0.665
NCI-H661	0.99	1	0.844	0.657	0.348	0.324	0.323	0.295	0.985	1.02	0.864	0.887	0.875	0.28	0.282	0.278	0.295	0.297	1.02	0.34
NCI-H727	0.255	0.334	0.237	0.244	0.607	0.606	0.379	0.185	0.938	0.697	1	0.771	0.687	0.52	0.593	0.537	0.475	0.51	0.425	0.523
NCI-H838	0.265	0.196	0.189	0.158	0.279	0.245	0.179	0.2	0.917	0.891	0.814	0.883	0.848	0.412	0.45	0.628	0.626	0.442	0.24	0.292
NCI-H1355	0.766	0.569	0.458	0.435	0.585	0.459	0.401	0.347	1.07	1.12	1.09	1.01	0.941	0.457	0.4	0.4	0.443	0.379	0.561	0.421
